This is an account of results in patent US10670605B2, “Cysteine reactive probes and uses thereof” (The Scripps Research Institute, priority 2015, dated 2020).

SMILES strings stand for the structures. Structures can show the parent of a compound that is named as a salt.

One assay concerns primary human T cells. Description: T cell activation markers CD25 and CD69 (flow cytometry). The class given is cell-based. As for the experimental part: 96-well plates were coated with anti-CD3 (1:200; BioXcell) and anti-CD28 (1:500; 302933; BioLegend) in PBS (100 μL/well) overnight at 4° C. The plates were then washed twice with PBS and to each well was added 500,000 primary T cells in 100 μL of RPMI supplemented with 10% FBS, glutamine, and Pen-Strep. Cells were then treated with 100 μL of media containing compound at the indicated concentrations (final well volume of 200 μL). Cells were left at 37° C. in a 5% CO2 incubator for the indicated periods of time and harvested by centrifugation (500 g, 8 min, 4° C.), followed by washing with PBS.
Flow cytometry analysis of cell surface antigens was performed with the following antibodies: Pacific Blue-conjugated anti-CD8 (1:25 dilution; clone RPA-T8; BD Biosciences), APC-conjugated anti-CD4 (1:25 dilution; clone RPA-T4; eBioscience), phycoerythrin-conjugated anti-CD25 (1:25 dilution; clone BC96; eBioscience or PC61; BioLegend (PKCθ studies)), FITC-conjugated anti-CD69 (1:25 dilution; clone FN50; eBioscience). All antibodies were diluted in 1% FBS in PBS, and 50 μL of the stain solution was added to each well. […] Flow cytometry acquisition was performed with BD FACSDivam-driven BD™ LSR II flow cytometer (Becton, Dickinson and Company). Data was then analyzed with FlowJo software (Treestar Inc.). Data represent mean±SE for four-five experiments per group.

A further assay has as its target T1, KDM4B C694 (O94953) (Homo sapiens, UniProt O94953).
T1 sequence (O94953 1-1096): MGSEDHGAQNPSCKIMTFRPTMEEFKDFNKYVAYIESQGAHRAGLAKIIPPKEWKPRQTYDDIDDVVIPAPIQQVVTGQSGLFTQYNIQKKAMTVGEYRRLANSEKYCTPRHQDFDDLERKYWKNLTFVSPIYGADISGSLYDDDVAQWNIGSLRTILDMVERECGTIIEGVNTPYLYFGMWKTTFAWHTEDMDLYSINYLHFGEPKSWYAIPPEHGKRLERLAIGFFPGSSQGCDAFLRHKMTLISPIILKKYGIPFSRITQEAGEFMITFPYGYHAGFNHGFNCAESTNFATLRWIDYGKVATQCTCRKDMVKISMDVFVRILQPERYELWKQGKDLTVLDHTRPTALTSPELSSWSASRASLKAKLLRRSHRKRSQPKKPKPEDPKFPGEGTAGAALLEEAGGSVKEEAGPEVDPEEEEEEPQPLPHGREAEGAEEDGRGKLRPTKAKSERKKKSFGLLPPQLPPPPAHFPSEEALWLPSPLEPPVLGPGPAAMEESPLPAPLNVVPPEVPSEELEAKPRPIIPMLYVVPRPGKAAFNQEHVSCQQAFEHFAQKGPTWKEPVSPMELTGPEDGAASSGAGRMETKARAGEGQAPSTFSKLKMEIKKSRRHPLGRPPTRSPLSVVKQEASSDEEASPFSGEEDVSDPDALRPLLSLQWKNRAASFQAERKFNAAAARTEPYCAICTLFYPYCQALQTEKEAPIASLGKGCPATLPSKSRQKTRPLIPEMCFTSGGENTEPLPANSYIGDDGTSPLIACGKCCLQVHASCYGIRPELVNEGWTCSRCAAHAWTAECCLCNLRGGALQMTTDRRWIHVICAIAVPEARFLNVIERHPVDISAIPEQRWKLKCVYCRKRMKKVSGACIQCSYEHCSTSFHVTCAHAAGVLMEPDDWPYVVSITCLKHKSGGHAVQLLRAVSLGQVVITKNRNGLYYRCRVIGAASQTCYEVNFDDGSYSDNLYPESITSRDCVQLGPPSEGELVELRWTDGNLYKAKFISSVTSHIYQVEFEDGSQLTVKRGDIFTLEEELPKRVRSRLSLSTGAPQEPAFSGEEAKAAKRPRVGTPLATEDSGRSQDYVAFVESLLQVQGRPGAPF
Description: Competitive isoTOP-ABPP in situ. The settings on record: fragment 2 at 200 μM, MDA-MB-231 cells. The class given is cell-based.

The next assay has as its target T2, PRMT1 (Homo sapiens, UniProt Q99873).
T2 construct: Full length PRMT1 subcloned into pET45b (+) (Novagen) was previously generated by the Cravatt lab; inferred from Ni-NTA purification and the pET45b vector; made in house; host or cells: E. coli BL21(DE3)
Kind of assay: PRMT1 in vitro methylation assay (histone 4, 3H-SAM). The settings on record: pre-treatment with fragment 1 h. The class given is biochemical. The procedure:
PRMT1 assays were conducted as described in Weerapana et al. Nature 468:790-795 (2010). Recombinant human PRMT1 (0.85 μM, wild type or C101S mutant) in 25 μL methylation buffer (20 mM Tris, pH 8.0, 200 mM NaCl, 0.4 mM EDTA) was pre-incubated with indicated fragments for 1 h and methylation activity was monitored after addition of […] of recombinant histone 4 (NEB, M2504S) and ^3H-SAM (2 μCi). Reactions were further incubated for 60 min at ambient temperature and stopped with 4×SDS sample buffer. SDS-PAGE gels were fixed with 10% acetic acid/10% methanol (v/v), washed, and incubated with Amplify reagent (Amersham) before exposing to film at −80° C. for 3 days.

Where [1] appears, read: anti-CD3, anti-CD28 stimulation, 8 h.

T2 sequence (Q99873 11-371 limits assumed): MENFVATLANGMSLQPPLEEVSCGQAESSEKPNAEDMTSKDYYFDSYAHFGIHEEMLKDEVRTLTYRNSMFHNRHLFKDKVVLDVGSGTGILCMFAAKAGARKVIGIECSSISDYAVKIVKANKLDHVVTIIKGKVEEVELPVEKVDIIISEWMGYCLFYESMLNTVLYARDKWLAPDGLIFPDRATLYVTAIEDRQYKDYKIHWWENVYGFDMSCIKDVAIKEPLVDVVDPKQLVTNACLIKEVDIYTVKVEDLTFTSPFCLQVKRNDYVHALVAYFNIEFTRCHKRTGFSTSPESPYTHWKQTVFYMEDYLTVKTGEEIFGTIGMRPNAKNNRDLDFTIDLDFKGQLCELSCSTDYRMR

On to `COC(=O)/C=C/C(=O)OC` [DMF, dimethyl fumarate], for which the “blockade of T cell activation” value with primary human T cells (10 μM) is “marginal/negligible”; in the assay with primary human T cells (25 μM), “partial”; in the assay on primary human T cells (50 μM), “near-complete inhibition”. The “expression of CD25” value in the assay on primary human T cells (setting [1]) is “blocked”. In addition, in the assay on primary human T cells (setting [1]), the “expression of CD69” value is “blocked”. Besides, the “inhibitory effect on T cell activation” value is “completely ablated” with primary human T cells (drug added six hours after stimulation) and “reduced” with primary human T cells (drug added two hours after stimulation).
With `COc1ccc2c(c1)CCCN2C(=O)CCl` [compound 2], at KDM4B C694 (O94953), the “isoTOP-ABPP reactivity profile (ratio) 2_200 μM_in-situ_231” value was determined as 20.0.
On to `Cn1cc(S(=O)(=O)N2CCOCC2)cc1C(=O)NC(=O)CCl` [compound 11], for which, on PRMT1, the “PRMT1-catalyzed methylation of histone 4” value is on record as “inhibited”.
